Experimental data: publication PMC8426238, “Synthesis and preclinical evaluation of [^11C]MTP38 as a novel PET ligand for phosphodiesterase 7 in the brain” (European Journal of Nuclear Medicine and Molecular Imaging, 2021)

Key:
Thyroid Hormone = assay: off-target screen panel; format: binding; settings: Rat liver, [^125I]Triiodothyronine
Bradykinin B1 = target: T1, Bradykinin B1 (Homo sapiens, UniProt P46663); assay: off-target screen panel; format: binding; settings: Human IMR-90 cells, [^3H](Des-Arg^10)-Kallidin
T1 construct: purchased Eurofins Panlabs Discovery Services (Taiwan)
T1 sequence (P46663 whole entry): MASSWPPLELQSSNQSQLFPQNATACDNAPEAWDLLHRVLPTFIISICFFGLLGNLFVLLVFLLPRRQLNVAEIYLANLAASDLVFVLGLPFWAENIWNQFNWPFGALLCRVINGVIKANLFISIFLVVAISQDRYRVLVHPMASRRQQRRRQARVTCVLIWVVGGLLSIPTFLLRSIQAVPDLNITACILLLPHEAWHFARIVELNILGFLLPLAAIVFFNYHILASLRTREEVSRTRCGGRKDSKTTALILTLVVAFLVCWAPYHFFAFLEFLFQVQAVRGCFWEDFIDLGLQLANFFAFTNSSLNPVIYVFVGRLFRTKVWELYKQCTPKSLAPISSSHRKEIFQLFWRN

Phorbol Ester = assay: off-target screen panel; format: binding; settings: Mouse brain, [^3H]PDBu
[1] = system: Calcium Channel L-Type, Dihydropyridine; assay: off-target screen panel; format: binding; settings: Rat cerebral cortex, [^3H]Nitrendipine
hERG potassium channel = target: T2, hERG potassium channel (Homo sapiens, UniProt Q12809); assay: off-target screen panel; format: binding; settings: human recombinant hERG potassium channel, probe [^3H]Astemizole
T2 construct: purchased Eurofins Panlabs Discovery Services (Taiwan)

Purinergic P2Y = assay: off-target screen panel; format: binding; settings: Rat brain, [^35S]ATP-αS
Glucocorticoid = target: T3, Glucocorticoid (Homo sapiens, UniProt P04150); assay: off-target screen panel; format: binding; settings: Human recombinant, [^3H]Dexamethasone
T3 construct: purchased Eurofins Panlabs Discovery Services (Taiwan)
T3 sequence (P04150 whole entry): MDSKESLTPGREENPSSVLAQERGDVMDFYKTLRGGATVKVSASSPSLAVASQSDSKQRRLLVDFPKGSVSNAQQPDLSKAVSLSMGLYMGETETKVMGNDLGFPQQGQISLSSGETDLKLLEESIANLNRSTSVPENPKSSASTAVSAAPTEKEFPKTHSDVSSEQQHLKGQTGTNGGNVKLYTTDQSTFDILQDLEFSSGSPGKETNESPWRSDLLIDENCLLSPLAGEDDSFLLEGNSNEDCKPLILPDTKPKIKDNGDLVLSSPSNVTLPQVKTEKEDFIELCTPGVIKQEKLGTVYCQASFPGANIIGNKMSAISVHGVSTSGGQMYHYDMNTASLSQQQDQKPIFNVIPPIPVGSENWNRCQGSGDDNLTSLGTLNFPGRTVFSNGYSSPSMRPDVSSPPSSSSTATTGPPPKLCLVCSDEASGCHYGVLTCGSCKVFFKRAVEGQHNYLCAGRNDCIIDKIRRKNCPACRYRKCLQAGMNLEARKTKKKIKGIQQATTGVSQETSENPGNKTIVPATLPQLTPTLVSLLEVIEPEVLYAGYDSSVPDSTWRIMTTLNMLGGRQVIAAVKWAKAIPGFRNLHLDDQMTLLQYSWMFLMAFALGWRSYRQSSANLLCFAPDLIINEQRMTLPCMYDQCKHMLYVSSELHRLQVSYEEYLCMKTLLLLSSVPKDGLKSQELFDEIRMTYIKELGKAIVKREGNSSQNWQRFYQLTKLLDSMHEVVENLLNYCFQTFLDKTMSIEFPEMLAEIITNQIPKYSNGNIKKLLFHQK

Endothelin ETB = target: T4, Endothelin ETB (Homo sapiens, UniProt P24530); assay: off-target screen panel; format: binding; settings: Human recombinant, [^125I]Endothelin-1
T4 construct: purchased Eurofins Panlabs Discovery Services (Taiwan)
T4 sequence (P24530 27-442): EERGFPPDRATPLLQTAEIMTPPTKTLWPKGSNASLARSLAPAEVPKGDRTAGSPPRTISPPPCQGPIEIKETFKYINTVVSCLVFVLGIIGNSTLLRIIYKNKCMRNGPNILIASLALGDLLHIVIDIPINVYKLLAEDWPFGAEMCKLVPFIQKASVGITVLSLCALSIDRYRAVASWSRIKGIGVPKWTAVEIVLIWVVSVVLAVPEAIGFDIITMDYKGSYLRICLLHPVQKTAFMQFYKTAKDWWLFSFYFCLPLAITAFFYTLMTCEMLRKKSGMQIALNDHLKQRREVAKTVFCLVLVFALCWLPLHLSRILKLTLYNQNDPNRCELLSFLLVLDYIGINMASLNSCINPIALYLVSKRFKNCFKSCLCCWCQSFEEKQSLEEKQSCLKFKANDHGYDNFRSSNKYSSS

Potassium Channel [KATP] = assay: off-target screen panel; format: binding; settings: Hamster pancreatic HIT-T15 beta cells, [^3H]Glyburide
PDE7 = assay: PET imaging in monkeys with [^11C]MTP38; format: in vivo, rhesus monkeys; settings: after unlabeled MTP38 iv bolus 0.075 mg/kg + infusion 0.3 mg/kg/h
Procedure: Each monkey underwent multiple PET scans with intervals longer than 2 weeks. The monkeys were given an intramuscular injection of 0.04 mg/kg of atropine sulfate at 1.5 h before radioligand injection. They were subsequently anesthetized with an intramuscular injection of ketamine (5 mg/kg) and xylazine (0.5 mg/kg), intubated, and kept anesthetized with 1–2% isoflurane. Heart rate, electrocardiogram, body temperature, blood oxygen saturation level, and end-tidal CO2 were monitored during the PET scan. The monkeys were placed on a bed in a supine position, and the head was fixed at the center of the field of view of a microPET scanner Focus220. A transmission scan was performed for about 20 min using a ^68Ge-^68Ga point source. A 90-min list-mode data acquisition was started simultaneously with intravenous administration of [^11C]MTP38 via a saphenous vein cannula. All list-mode data were sorted into 3D sinograms, which were then Fourier-rebinned into 2D sinograms (frames: 10 s × 6, 30 s × 8, 1 min × 5, 2 min × 10, and 5 min × 12). The images were corrected for attenuation and reconstructed with a filtered back-projection algorithm using a Hanning filter with a cut-off at the Nyquist frequency (0.5 mm^−1).
Along with baseline scans, we carried out blocking PET experiments according to the following pretreatment protocols: (1) unlabeled MTP38 was administered as an intravenous bolus (0.075 mg/kg) at 1 h before radioligand injection followed by continuous infusion at a rate of 0.3 mg/kg/h until the end of the PET scan, and (2) MTP-X (0.3–30 mg/kg) was administered orally at 2 or 6 h before radioligand injection.
PET scans for monkeys at baseline and following pretreatment with unlabeled MTP38, and 3, 10, 30 mg/kg of MTP-X were performed along with arterial blood sampling to obtain a metabolite-corrected input function. In total, 22 arterial blood samples were collected manually with heparinized syringes via a saphenous artery contralateral to the radioligand injection. Sampling was performed at 10, 20, 30, 40, 50, 60, 75, 90, 105, 120, 150, 180, and 210 s and at 4, 5, 10, 20, 30, 45, 60, 75, and 90 min after radioligand injection. Blood samples were then placed on ice and divided into two aliquots, one of which was centrifuged with a refrigerated centrifuge (15,000×g, 3 min, 4 °C) to obtain plasma.
PET images were co-registered onto the individual MR images. ROIs were placed on the prefrontal and medial frontal cortices, hippocampus, amygdala, striatum (caudate + putamen), nucleus accumbens, thalamus, cerebellum (gray matter), and brainstem. TACs in the baseline and blockade experiments were generated for each ROI.
Regional TACs were examined by several analytical methods to calculate the regional total distribution volume (VT), which represents the sum of non-specific and specific radioligand binding. Compartment model (1- or 2-tissue) and Logan’s graphical analyses were employed for describing the radioligand kinetics in the brain. The fractional blood volume was fixed at 0.05. For compartment model analyses, an optimal model was chosen on the basis of Akaike’s information criterion (AIC) and model selection criterion (MSC). For graphical analyses, an equilibration time t* was determined so that by the maximum error from the regression within the linear segment was considered to be 10% for each TAC. Time stability of VT was investigated by truncating the data duration stepwise from 90 min to 30 min. The VT values with or without pretreatment with a blocker were then compared. We also validated the use of the cerebellum as a reference tissue by this comparison, in addition to the autoradiographic findings, in monkey brain slices. The non-displaceable binding potential (BPND) was calculated by the original multilinear reference tissue model (MRTMO). t* was determined in the same manner as Logan’s graphical analysis. […]

[2] = target: T5, Serotonin (5-Hydroxytryptamine) 5-HT2B (Homo sapiens, UniProt P41595); assay: off-target screen panel; format: binding; settings: Human recombinant, [^3H]Lysergic acid diethylamide (LSD)
T5 construct: purchased Eurofins Panlabs Discovery Services (Taiwan)
T5 sequence (P41595 whole entry): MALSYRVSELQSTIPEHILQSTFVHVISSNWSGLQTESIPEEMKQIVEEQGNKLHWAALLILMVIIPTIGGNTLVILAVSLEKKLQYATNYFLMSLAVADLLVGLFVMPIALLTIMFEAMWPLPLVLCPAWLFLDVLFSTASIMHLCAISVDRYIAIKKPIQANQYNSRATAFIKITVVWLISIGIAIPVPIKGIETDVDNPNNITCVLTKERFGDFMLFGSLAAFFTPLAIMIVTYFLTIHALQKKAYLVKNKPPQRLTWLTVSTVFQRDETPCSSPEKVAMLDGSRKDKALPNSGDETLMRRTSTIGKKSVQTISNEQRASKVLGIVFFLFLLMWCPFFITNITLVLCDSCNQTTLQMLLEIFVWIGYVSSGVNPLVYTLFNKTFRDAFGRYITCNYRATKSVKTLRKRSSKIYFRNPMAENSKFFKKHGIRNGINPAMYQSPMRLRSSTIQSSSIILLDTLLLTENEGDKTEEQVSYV

[3] = target: T6, Serotonin (5-Hydroxytryptamine) 5-HT1A (Homo sapiens, UniProt P08908); assay: off-target screen panel; format: binding; settings: Human recombinant, [^3H]8-OH-DPAT
T6 construct: purchased Eurofins Panlabs Discovery Services (Taiwan)

Adrenergic α1B = target: T7, Adrenergic α1B (Rattus norvegicus, UniProt P15823); assay: off-target screen panel; format: binding; settings: Rat liver, [^3H]Prazosin
T7 construct: purchased Eurofins Panlabs Discovery Services (Taiwan)

[4] = target: T8, Nicotinic Acetylcholine α1, Bungarotoxin (Homo sapiens, UniProt P02708+P07510+Q07001); assay: off-target screen panel; format: binding; settings: read-out: Inhibition (%) at 1 μM
T8 construct: purchased Eurofins Panlabs Discovery Services (Taiwan)
T8 sequence (Q07001 22-517): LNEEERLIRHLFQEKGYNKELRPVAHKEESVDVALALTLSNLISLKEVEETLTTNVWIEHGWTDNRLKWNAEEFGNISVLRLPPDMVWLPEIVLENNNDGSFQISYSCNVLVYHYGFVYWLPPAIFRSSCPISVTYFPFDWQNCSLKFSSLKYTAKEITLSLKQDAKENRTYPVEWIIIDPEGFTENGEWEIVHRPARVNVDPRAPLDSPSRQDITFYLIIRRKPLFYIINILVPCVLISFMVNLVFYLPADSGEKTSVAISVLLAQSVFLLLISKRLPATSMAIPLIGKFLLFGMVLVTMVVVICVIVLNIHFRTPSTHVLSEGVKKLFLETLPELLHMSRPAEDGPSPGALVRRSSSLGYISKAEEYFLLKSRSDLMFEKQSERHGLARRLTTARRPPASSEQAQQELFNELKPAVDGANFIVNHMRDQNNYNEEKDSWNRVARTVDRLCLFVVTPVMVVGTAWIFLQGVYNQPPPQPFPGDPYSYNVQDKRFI
T8 sequence (P02708 21-457): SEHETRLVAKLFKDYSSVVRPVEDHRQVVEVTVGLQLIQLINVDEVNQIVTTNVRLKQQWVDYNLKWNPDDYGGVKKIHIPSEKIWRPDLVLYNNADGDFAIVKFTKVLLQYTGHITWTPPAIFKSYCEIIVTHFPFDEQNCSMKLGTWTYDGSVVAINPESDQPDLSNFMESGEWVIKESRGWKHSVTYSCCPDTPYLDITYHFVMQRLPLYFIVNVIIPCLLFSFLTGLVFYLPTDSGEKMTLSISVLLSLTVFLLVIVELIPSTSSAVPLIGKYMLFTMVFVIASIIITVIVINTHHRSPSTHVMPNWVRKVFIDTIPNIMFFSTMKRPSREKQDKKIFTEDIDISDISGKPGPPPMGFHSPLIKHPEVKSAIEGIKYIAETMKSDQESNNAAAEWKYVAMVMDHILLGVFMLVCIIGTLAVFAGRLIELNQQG
T8 sequence (P07510 23-517): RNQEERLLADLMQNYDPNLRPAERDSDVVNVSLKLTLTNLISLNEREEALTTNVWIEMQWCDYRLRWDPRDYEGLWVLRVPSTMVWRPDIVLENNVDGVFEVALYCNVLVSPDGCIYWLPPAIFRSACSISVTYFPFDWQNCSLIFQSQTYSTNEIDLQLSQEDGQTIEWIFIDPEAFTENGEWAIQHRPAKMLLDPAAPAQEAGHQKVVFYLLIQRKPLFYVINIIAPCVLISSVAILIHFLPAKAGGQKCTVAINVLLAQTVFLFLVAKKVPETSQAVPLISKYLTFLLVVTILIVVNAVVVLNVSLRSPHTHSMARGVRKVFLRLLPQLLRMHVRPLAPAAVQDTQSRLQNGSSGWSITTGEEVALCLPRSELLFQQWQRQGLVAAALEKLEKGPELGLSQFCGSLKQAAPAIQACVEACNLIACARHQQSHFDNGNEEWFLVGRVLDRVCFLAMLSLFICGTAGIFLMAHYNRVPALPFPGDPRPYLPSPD
T8 sequence (P11230 24-501, further chain): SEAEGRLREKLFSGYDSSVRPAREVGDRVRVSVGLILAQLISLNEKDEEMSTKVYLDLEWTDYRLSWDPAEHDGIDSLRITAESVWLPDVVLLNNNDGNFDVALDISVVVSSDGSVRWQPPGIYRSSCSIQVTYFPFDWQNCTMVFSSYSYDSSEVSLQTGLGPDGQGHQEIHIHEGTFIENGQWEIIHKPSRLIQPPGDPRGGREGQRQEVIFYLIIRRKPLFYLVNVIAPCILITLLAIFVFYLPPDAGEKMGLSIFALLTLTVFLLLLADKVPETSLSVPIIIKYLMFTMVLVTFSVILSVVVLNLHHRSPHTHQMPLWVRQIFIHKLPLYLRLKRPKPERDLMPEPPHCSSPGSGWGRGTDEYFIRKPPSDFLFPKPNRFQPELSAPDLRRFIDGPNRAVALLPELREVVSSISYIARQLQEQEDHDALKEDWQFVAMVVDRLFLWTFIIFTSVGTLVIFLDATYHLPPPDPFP

Dopamine D4.2 = target: T9, Dopamine D4.2 (Homo sapiens, UniProt P21917, DEL265-296); assay: off-target screen panel; format: binding; settings: Human recombinant, [^3H]Spiperone
T9 construct: purchased Eurofins Panlabs Discovery Services (Taiwan)
T9 sequence (P21917 with tags, fused parts or gaps DEL265-296): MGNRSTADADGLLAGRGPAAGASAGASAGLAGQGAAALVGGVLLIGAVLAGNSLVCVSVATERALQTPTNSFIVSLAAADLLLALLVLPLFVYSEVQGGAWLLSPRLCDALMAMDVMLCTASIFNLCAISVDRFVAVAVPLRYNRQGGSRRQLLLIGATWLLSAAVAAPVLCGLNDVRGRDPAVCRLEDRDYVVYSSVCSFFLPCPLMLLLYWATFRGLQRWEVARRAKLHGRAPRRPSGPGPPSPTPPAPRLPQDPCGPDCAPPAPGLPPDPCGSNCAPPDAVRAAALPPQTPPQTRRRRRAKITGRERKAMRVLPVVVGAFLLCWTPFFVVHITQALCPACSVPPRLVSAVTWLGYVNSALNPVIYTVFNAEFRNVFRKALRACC

[5] = system: GABAA, Flunitrazepam, Central; assay: off-target screen panel; format: binding; settings: Rat brain (minus cerebellum), [^3H]Flunitrazepam
Imidazoline I2, Central = assay: off-target screen panel; format: binding; settings: Rat cerebral cortex, [^3H]Idazoxan
Adrenergic α1D = target: T10, Adrenergic α1D (Homo sapiens, UniProt P25100); assay: off-target screen panel; format: binding; settings: Human recombinant, [^3H]Prazosin
T10 construct: purchased Eurofins Panlabs Discovery Services (Taiwan)
T10 sequence (P25100 whole entry): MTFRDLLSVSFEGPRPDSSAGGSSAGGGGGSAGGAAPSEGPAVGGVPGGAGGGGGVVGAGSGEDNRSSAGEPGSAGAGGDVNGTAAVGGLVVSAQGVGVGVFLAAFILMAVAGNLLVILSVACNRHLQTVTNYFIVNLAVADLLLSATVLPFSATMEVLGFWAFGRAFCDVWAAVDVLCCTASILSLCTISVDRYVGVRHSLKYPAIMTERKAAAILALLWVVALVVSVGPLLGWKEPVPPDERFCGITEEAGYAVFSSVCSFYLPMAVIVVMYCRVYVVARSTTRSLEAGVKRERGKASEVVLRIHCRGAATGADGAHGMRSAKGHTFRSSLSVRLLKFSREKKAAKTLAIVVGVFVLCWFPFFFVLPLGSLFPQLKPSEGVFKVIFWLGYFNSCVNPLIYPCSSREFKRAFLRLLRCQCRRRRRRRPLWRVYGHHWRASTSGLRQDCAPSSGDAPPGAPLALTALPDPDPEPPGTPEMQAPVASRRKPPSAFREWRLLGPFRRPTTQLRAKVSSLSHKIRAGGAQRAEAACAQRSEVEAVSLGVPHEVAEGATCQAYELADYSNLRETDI

**Q.** Which “Inhibition (%) at 1 μM” value (Thyroid Hormone) does the source give for `C[C@@H]1CC[C@H](C)N(c2nnc3c(N)ncc(C#N)n23)C1` (relative stereo) [MTP38, 8-amino-3-(2S*,5R*-dimethyl-1-piperidyl)-[1,2,4]triazolo[4,3-a]pyrazine-5-carbonitrile] here?
**A.** 7%

**Q.** What about the inhibition at 1 µM (Bradykinin B1) of the same molecule?
**A.** 9%

**Q.** And the “Inhibition (%) at 1 μM” value (Phorbol Ester)?
**A.** -7%

**Q.** And the “Inhibition (%) at 1 μM” value [1]?
**A.** 7%

**Q.** What about the inhibition at 1 µM (hERG potassium channel) of the same molecule?
**A.** 17%

**Q.** What about the “Inhibition (%) at 1 μM” value (Purinergic P2Y) of the same molecule?
**A.** -20%

**Q.** What about the inhibition at 1 µM (Glucocorticoid) of the same molecule?
**A.** 0%

**Q.** And the inhibition at 1 µM (Endothelin ETB)?
**A.** 3%

**Q.** What about the “Inhibition (%) at 1 μM” value (Potassium Channel [KATP]) of the same molecule?
**A.** 5%

**Q.** What about the “Striatal BPND of [^11C]MTP38” value (PDE7; monkey #1) of the same molecule?
**A.** 0.157

**Q.** And the “Striatal BPND of [^11C]MTP38” value (PDE7; monkey #2)?
**A.** 0.017

**Q.** What about the inhibition at 1 µM [2] of the same molecule?
**A.** -1%

**Q.** And the inhibition at 1 µM [3]?
**A.** -5%

**Q.** What about the inhibition at 1 µM (Adrenergic α1B) of the same molecule?
**A.** -3%

**Q.** What about the inhibition at 1 µM [4] of the same molecule?
**A.** 15%

**Q.** And the inhibition at 1 µM (Dopamine D4.2)?
**A.** -3%

**Q.** What about the “Inhibition (%) at 1 μM” value [5] of the same molecule?
**A.** -2%

**Q.** And the “Inhibition (%) at 1 μM” value (Imidazoline I2, Central)?
**A.** -8%

**Q.** What about the inhibition at 1 µM (Adrenergic α1D) of the same molecule?
**A.** -3%
